Where “and” joins values, the source holds several entries; their conditions need not be identical. Identical values can stand only once. Inconclusive results and toxic doses are left out.

The assay deals with P388 leukemia ip, CD2F1 mice, survival T/C. Description: NCI In Vivo Anticancer Drug Screen. Data for tumor model P388 Leukemia (intraperitoneal) in CD2F1 (CDF1) mice. Conditions: endpoint: median survival time, higher = longer survival. The method, boiled down: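 Mice carrying the transplanted tumor received test compound or vehicle. Survival was recorded in each group, and the value is the treated-group measurement divided by that of the vehicle-treated control group.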

Turning to `Nc1ncnc2c1ncn2C1OC(CO)C(O)C1O` (configuration not stated), the T/C reads like this: (dose: 1.25 mg/kg/injection, schedule: Q03HX016 (ip), vehicle: saline) 113 % of control; (dose: 1.56 mg/kg/injection, schedule: Q01DX009 (ip), vehicle: saline) 116 % of control; (dose: 2.5 mg/kg/injection, schedule: Q03HX016 (ip), vehicle: saline) 122 % of control; (dose: 3.12 mg/kg/injection, schedule: Q01DX009 (ip), vehicle: saline) 122 % of control; (dose: 6.25 mg/kg/injection, schedule: Q01DX009 (ip), vehicle: saline) 119 % of control and 104 % of control; (dose: 9.0 mg/kg/injection, schedule: Q01DX009 (ip), vehicle: saline with Tween-80) 114 % of control. In addition, the T/C is 118 % of control (dose: 12.5 mg/kg/injection, schedule: Q01DX009 (ip), vehicle: saline with Tween-80); 103 % of control (dose: 12.5 mg/kg/injection, schedule: Q01DX009 (ip), vehicle: saline); 110 % of control (dose: 12.5 mg/kg/injection, schedule: Q03HX016 (ip), vehicle: Klucel (hydroxypropylcellulose) (HPC)); 120 % of control (dose: 14.0 mg/kg/injection, schedule: Q01DX009 (ip), vehicle: saline with Tween-80); 103 % of control (dose: 20.0 mg/kg/injection, schedule: Q01DX009 (ip), vehicle: saline); 122 % of control (dose: 20.0 mg/kg/injection, schedule: Q03HX016 (ip), vehicle: saline). The T/C runs as follows: (dose: 25.0 mg/kg/injection, schedule: Q01DX009 (ip), vehicle: saline) 103 % of control; (dose: 25.0 mg/kg/injection, schedule: Q03HX016 (ip), vehicle: Klucel (hydroxypropylcellulose) (HPC)) 120 % of control; (dose: 25.0 mg/kg/injection, schedule: Q04DX003 (ip), vehicle: Klucel (hydroxypropylcellulose) (HPC)) 105 % of control; (dose: 25.0 mg/kg/injection, schedule: Q04DX003 (ip), vehicle: saline sonified) 118 % of control; (dose: 32.0 mg/kg/injection, schedule: Q01DX009 (ip), vehicle: Klucel (hydroxypropylcellulose) (HPC)) 100 % of control and 102 % of control; (dose: 40.0 mg/kg/injection, schedule: Q01DX009 (ip), vehicle: saline) 115 % of control and 118 % of control. The T/C reads like this: (dose: 50.0 mg/kg/injection, schedule: Q01DX009 (ip), vehicle: saline sonified) 123 % of control; (dose: 50.0 mg/kg/injection, schedule: Q01DX009 (ip), vehicle: saline) 99 % of control; (dose: 50.0 mg/kg/injection, schedule: Q04DX003 (ip), vehicle: Klucel (hydroxypropylcellulose) (HPC)) 97 % of control; (dose: 50.0 mg/kg/injection, schedule: Q04DX003 (ip), vehicle: saline sonified) 122 % of control; (dose: 64.0 mg/kg/injection, schedule: Q01DX009 (ip), vehicle: Klucel (hydroxypropylcellulose) (HPC)) 102 % of control and 97 % of control; (dose: 75.0 mg/kg/injection, schedule: Q01DX009 (ip), vehicle: saline sonified) 95 % of control. The T/C (dose: 75.0 mg/kg/injection, schedule: Q01DX009 (ip), vehicle: saline with Tween-80) is 72 % of control; the T/C (dose: 78.6 mg/kg/injection, schedule: Q01DX005 (ip), vehicle: water) was 106 % of control; the T/C (dose: 78.6 mg/kg/injection, schedule: Q01DX009 (ip), vehicle: water) is 100 % of control; the T/C (dose: 80.0 mg/kg/injection, schedule: Q01DX009 (ip), vehicle: saline) is 122 % of control; the T/C (dose: 100.0 mg/kg/injection, schedule: Q01DX009 (ip), vehicle: saline) is 122 % of control and 73 % of control; the T/C (dose: 100.0 mg/kg/injection, schedule: Q04DX003 (ip), vehicle: Klucel (hydroxypropylcellulose) (HPC)) was 96 % of control. Also, the T/C (dose: 100.0 mg/kg/injection, schedule: Q04DX003 (ip), vehicle: saline sonified) was 110 % of control; the T/C (dose: 118.0 mg/kg/injection, schedule: Q01DX005 (ip), vehicle: water) was 99 % of control; the T/C (dose: 118.0 mg/kg/injection, schedule: Q01DX009 (ip), vehicle: water) was 99 % of control; the T/C (dose: 128.0 mg/kg/injection, schedule: Q01DX009 (ip), vehicle: Klucel (hydroxypropylcellulose) (HPC)) was 101 % of control and 93 % of control; the T/C (dose: 177.0 mg/kg/injection, schedule: Q01DX005 (ip), vehicle: water) is 99 % of control; the T/C (dose: 177.0 mg/kg/injection, schedule: Q01DX009 (ip), vehicle: water) is 111 % of control. The T/C runs as follows: (dose: 200.0 mg/kg/injection, schedule: Q01DX009 (ip), vehicle: saline with Tween-80) 115 % of control; (dose: 200.0 mg/kg/injection, schedule: Q03HX016 (ip), vehicle: Klucel (hydroxypropylcellulose) (HPC)) 154 % of control; (dose: 200.0 mg/kg/injection, schedule: Q04DX003 (ip), vehicle: Klucel (hydroxypropylcellulose) (HPC)) 98 % of control; (dose: 200.0 mg/kg/injection, schedule: Q04DX003 (ip), vehicle: saline sonified) 110 % of control; (dose: 256.0 mg/kg/injection, schedule: Q01DX009 (ip), vehicle: Klucel (hydroxypropylcellulose) (HPC)) 99 % of control and 88 % of control; (dose: 264.0 mg/kg/injection, schedule: Q04DX003 (ip), vehicle: saline with Tween-80) 121 % of control. The T/C runs as follows: (dose: 266.0 mg/kg/injection, schedule: Q01DX005 (ip), vehicle: water) 115 % of control; (dose: 266.0 mg/kg/injection, schedule: Q01DX009 (ip), vehicle: saline with Tween-80) 121 % of control; (dose: 266.0 mg/kg/injection, schedule: Q01DX009 (ip), vehicle: water) 113 % of control; (dose: 400.0 mg/kg/injection, schedule: Q01DX005 (ip), vehicle: water) 108 % of control; (dose: 400.0 mg/kg/injection, schedule: Q01DX009 (ip), vehicle: saline with Tween-80) 121 % of control; (dose: 400.0 mg/kg/injection, schedule: Q01DX009 (ip), vehicle: saline) 122 % of control. For the same compound, the T/C is, setting by setting: (dose: 400.0 mg/kg/injection, schedule: Q01DX009 (ip), vehicle: water) 117 % of control; (dose: 400.0 mg/kg/injection, schedule: Q03HX016 (ip), vehicle: Klucel (hydroxypropylcellulose) (HPC)) 183 % of control; (dose: 400.0 mg/kg/injection, schedule: Q04DX003 (ip), vehicle: saline with Tween-80) 117 % of control; (dose: 512.0 mg/kg/injection, schedule: Q01DX009 (ip), vehicle: Klucel (hydroxypropylcellulose) (HPC)) 101 % of control and 91 % of control; (dose: 600.0 mg/kg/injection, schedule: Q01DX009 (ip), vehicle: saline sonified) 86 % of control; (dose: 600.0 mg/kg/injection, schedule: Q01DX009 (ip), vehicle: saline with Tween-80) 111 % of control. In addition, the T/C reads like this: (dose: 900.0 mg/kg/injection, schedule: Q01DX009 (ip), vehicle: saline with Tween-80) 94 % of control; (dose: 1000.0 mg/kg/injection, schedule: Q01DX009 (oral), vehicle: saline with Tween-80) 101 % of control; (dose: 1.3 micrograms/kg/injection, schedule: Q#A X Z (ip), vehicle: water) 91 % of control; (dose: 1500.0 mg/kg/injection, schedule: Q01DX009 (oral), vehicle: saline with Tween-80) 104 % of control; (dose: 2000.0 mg/kg/injection, schedule: Q01DX009 (oral), vehicle: saline with Tween-80) 100 % of control; (dose: 13.4 micrograms/kg/injection, schedule: Q#A X Z (ip), vehicle: water) 98 % of control. Moreover, the T/C runs as follows: (dose: 134.0 micrograms/kg/injection, schedule: Q#A X Z (ip), vehicle: water) 98 % of control; (dose: 1340.0 micrograms/kg/injection, schedule: Q#A X Z (ip), vehicle: water) 100 % of control.
In the case of `O=C1c2ccccc2C(=O)c2c(NCCNCCNCCO)ccc(NCCNCCNCCO)c21`, the T/C by setting is: (dose: 8.0 mg/kg/injection, schedule: Q01DX009 (ip), vehicle: acid diluted with saline) 94 % of control; (dose: 16.0 mg/kg/injection, schedule: Q01DX009 (ip), vehicle: acid diluted with saline) 101 % of control; (dose: 25.0 mg/kg/injection, schedule: Q01DX009 (ip), vehicle: water) 111 % of control and 120 % of control; (dose: 32.0 mg/kg/injection, schedule: Q01DX009 (ip), vehicle: acid diluted with saline) 96 % of control; (dose: 50.0 mg/kg/injection, schedule: Q01DX009 (ip), vehicle: water) 111 % of control; (dose: 64.0 mg/kg/injection, schedule: Q01DX009 (ip), vehicle: acid diluted with saline) 98 % of control.
Take `O=C1CCCCCCCNC(=O)CCCCCCC(=O)NCCCCCCCC(=O)NCCCCCCCCN1`: the T/C by setting is: (dose: 50.0 mg/kg/injection, schedule: Q01DX001 (ip), vehicle: Klucel (hydroxypropylcellulose) (HPC)) 91 % of control; (dose: 100.0 mg/kg/injection, schedule: Q01DX001 (ip), vehicle: Klucel (hydroxypropylcellulose) (HPC)) 90 % of control; (dose: 200.0 mg/kg/injection, schedule: Q01DX001 (ip), vehicle: Klucel (hydroxypropylcellulose) (HPC)) 86 % of control and 89 % of control; (dose: 400.0 mg/kg/injection, schedule: Q01DX001 (ip), vehicle: Klucel (hydroxypropylcellulose) (HPC)) 89 % of control.

The record behind these values is PubChem BioAssay AID330 (DTP/NCI, 2004).
